Laboratory results: ChEMBL document CHEMBL1201862, “PubChem BioAssay data set” (2004)
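These data come from cells grown in 96-well plates and exposed to compound for 48 hours at five concentrations. GI50: concentration for 50% inhibition of growth.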 Calls of active or inactive are those of the source. Cut-off read from the data, not from the text of the source: active = GI50 up to about 1.1 µM and inactive = higher.

Assays:
Experiment in all cases: growth of human tumour cells (NCI), 48 h
MDA-MB-435 = system: MDA-MB-435
HOP-92 = system: HOP-92
UO-31 = system: UO-31
SK-MEL-2 = system: SK-MEL-2
A498 = system: A498
CAKI-1 = system: CAKI-1
HT-29 = system: HT-29
COLO 205 = system: COLO 205
SNB-75 = system: SNB-75
SR = system: SR
EKVX = system: EKVX
SK-OV-3 = system: SK-OV-3
OVCAR-5 = system: OVCAR-5
UACC-257 = system: UACC-257
SW-620 = system: SW-620
786-0 = system: 786-0
ACHN = system: ACHN
SNB-19 = system: SNB-19

Compound	GI50 (MDA-MB-435)	GI50 (HOP-92)	GI50 (UO-31)	GI50 (SK-MEL-2)	GI50 (A498)	GI50 (CAKI-1)	GI50 (HT-29)	GI50 (COLO 205)	GI50 (SNB-75)	GI50 (SR)	GI50 (EKVX)	GI50 (SK-OV-3)	GI50 (OVCAR-5)	GI50 (UACC-257)	GI50 (SW-620)	GI50 (786-0)	GI50 (ACHN)	GI50 (SNB-19)
COC(=O)C1(c2ccc(N(C)C)cc2OC)CCCN(C(=O)Oc2ccccc2[N+](=O)[O-])CCc2c1[nH]c1ccccc21 (centres undefined)	> 100 µM (inactive)	> 100 µM (inactive)	51.4 µM (inactive)	> 100 µM (inactive)	> 100 µM (inactive)	> 100 µM (inactive)	> 100 µM (inactive)	> 100 µM (inactive)	> 100 µM (inactive)	> 100 µM (inactive)	> 100 µM (inactive)	> 100 µM (inactive)	> 100 µM (inactive)	> 100 µM (inactive)	> 100 µM (inactive)	–	–	–
COc1cc(C)cc2c1C(=O)C(NC(C)=O)=CC2=O	17.3 µM (inactive)	99.8 µM (inactive)	> 100 µM (inactive)	> 100 µM (inactive)	> 100 µM (inactive)	> 100 µM (inactive)	> 100 µM (inactive)	> 100 µM (inactive)	45.7 µM (inactive)	55.1 µM (inactive)	> 100 µM (inactive)	> 100 µM (inactive)	> 100 µM (inactive)	57.4 µM (inactive)	> 100 µM (inactive)	> 100 µM (inactive)	> 100 µM (inactive)	> 100 µM (inactive)
O=C1Oc2ccc([N+](=O)[O-])cc2N/C1=C\C(=O)c1ccccc1	> 100 µM (inactive)	> 100 µM (inactive)	> 100 µM (inactive)	27.9 µM (inactive)	> 100 µM (inactive)	> 100 µM (inactive)	> 100 µM (inactive)	97.5 µM (inactive)	80 µM (inactive)	74.1 µM (inactive)	> 100 µM (inactive)	> 100 µM (inactive)	> 100 µM (inactive)	> 100 µM (inactive)	> 100 µM (inactive)	52.6 µM (inactive)	> 100 µM (inactive)	> 100 µM (inactive)
Oc1ccccc1-c1nn2c(CCCCCCCCc3nnc4sc(-c5ccccc5O)nn34)nnc2s1	5.18 µM (inactive)	19.1 µM (inactive)	4.11 µM (inactive)	15.9 µM (inactive)	14.5 µM (inactive)	5.11 µM (inactive)	11.1 µM (inactive)	37.2 µM (inactive)	5.94 µM (inactive)	3.93 µM (inactive)	22.4 µM (inactive)	15.2 µM (inactive)	6.27 µM (inactive)	20.3 µM (inactive)	27.9 µM (inactive)	14.7 µM (inactive)	12 µM (inactive)	23.7 µM (inactive)
COC(CN(C(C)=O)C1CCC2(SCCS2)c2[nH]c3ccccc3c21)OC (centres undefined)	> 100 µM (inactive)	> 100 µM (inactive)	> 100 µM (inactive)	> 100 µM (inactive)	> 100 µM (inactive)	> 100 µM (inactive)	> 100 µM (inactive)	> 100 µM (inactive)	> 100 µM (inactive)	57.9 µM (inactive)	72.1 µM (inactive)	–	> 100 µM (inactive)	0.773 µM (active)	> 100 µM (inactive)	> 100 µM (inactive)	> 100 µM (inactive)	> 100 µM (inactive)
[N-]=[N+]=Nc1c(C=O)c(=O)n2c3c(cccc13)CCC2	6.89 µM (inactive)	2.15 µM (inactive)	2.49 µM (inactive)	> 10 µM (inactive)	13.6 µM (inactive)	2.94 µM (inactive)	10 µM (inactive)	2.3 µM (inactive)	14.2 µM (inactive)	1.1 µM (active)	11.1 µM (inactive)	19 µM (inactive)	7.24 µM (inactive)	4.53 µM (inactive)	1.39 µM (inactive)	3.93 µM (inactive)	3.44 µM (inactive)	20 µM (inactive)
CCOC(=O)C[C@@H]1C2(C=C[C@@]13CO3)OCC(C)(C)CO2	> 100 µM (inactive)	> 100 µM (inactive)	> 100 µM (inactive)	> 100 µM (inactive)	> 100 µM (inactive)	> 100 µM (inactive)	> 100 µM (inactive)	> 100 µM (inactive)	> 100 µM (inactive)	> 100 µM (inactive)	> 100 µM (inactive)	> 100 µM (inactive)	> 100 µM (inactive)	> 100 µM (inactive)	> 100 µM (inactive)	–	–	–
CCCCOP(C)(=O)C(NC(=O)OCC)(C(F)(F)F)C(F)(F)F (centres undefined)	> 100 µM (inactive)	> 100 µM (inactive)	> 100 µM (inactive)	> 100 µM (inactive)	> 100 µM (inactive)	> 100 µM (inactive)	> 100 µM (inactive)	> 100 µM (inactive)	> 100 µM (inactive)	> 100 µM (inactive)	> 100 µM (inactive)	> 100 µM (inactive)	> 100 µM (inactive)	> 100 µM (inactive)	> 100 µM (inactive)	–	> 100 µM (inactive)	> 100 µM (inactive)
O=C1C(Cl)=C(N2CCC[C@H]2CO)C(=O)c2c(O)ccc(O)c21	1.82 µM (inactive)	1.72 µM (inactive)	2.24 µM (inactive)	2.53 µM (inactive)	> 10 µM (inactive)	1.66 µM (inactive)	4.18 µM (inactive)	1.77 µM (inactive)	> 10 µM (inactive)	0.592 µM (active)	9.16 µM (inactive)	> 10 µM (inactive)	> 10 µM (inactive)	1.35 µM (inactive)	1.7 µM (inactive)	2.03 µM (inactive)	2.03 µM (inactive)	> 10 µM (inactive)
O=P1(N2CCOCC2)OCCO1	> 100 µM (inactive)	> 100 µM (inactive)	> 100 µM (inactive)	–	> 100 µM (inactive)	> 100 µM (inactive)	> 100 µM (inactive)	> 100 µM (inactive)	–	> 100 µM (inactive)	> 100 µM (inactive)	–	> 100 µM (inactive)	> 100 µM (inactive)	> 100 µM (inactive)	> 100 µM (inactive)	> 100 µM (inactive)	> 100 µM (inactive)
COc1cc2cc(C(=O)N3CC(CCl)c4c3cc(N(C)C)c3ccccc43)[nH]c2c(OC)c1OC (centres undefined)	0.0146 µM (active)	0.0417 µM (active)	< 0.01 µM (active)	< 0.01 µM (active)	0.0123 µM (active)	< 0.01 µM (active)	< 0.01 µM (active)	0.012 µM (active)	< 0.01 µM (active)	< 0.01 µM (active)	< 0.01 µM (active)	0.0137 µM (active)	< 0.0108 µM (active)	0.0273 µM (active)	0.0107 µM (active)	< 0.01 µM (active)	< 0.01 µM (active)	0.0124 µM (active)
Cc1ccc2c(O)cc(-c3cc(C)sc3C)nc2n1	0.351 µM (active)	17.9 µM (inactive)	4.29 µM (inactive)	–	4.78 µM (inactive)	14.4 µM (inactive)	4.82 µM (inactive)	2.26 µM (inactive)	2.9 µM (inactive)	0.55 µM (active)	10.8 µM (inactive)	3.77 µM (inactive)	11.6 µM (inactive)	> 37.7 µM (inactive)	1.67 µM (inactive)	3.93 µM (inactive)	8.13 µM (inactive)	3.66 µM (inactive)
